This assay deals with T1, aldo-keto reductase 1C3 (AKR1C3) (Homo sapiens, UniProt P42330).
T1 construct: recombinant hAKR1C3 expressed in E. coli Rosetta (DE3), pET21b
Briefly: NADPH oxidation at […] nm with […],10-phenanthrenequinone, recombinant enzyme; also coumberone reduction in […]1 cells. The class given is biochemical.

The text below walks through data of article PMC12847094, “Casticin inhibits AKR1C3 and enhances abiraterone efficacy in castration-resistant prostate cancer” (Journal of Natural Medicines, 2025).

T1 sequence (P42330 whole entry): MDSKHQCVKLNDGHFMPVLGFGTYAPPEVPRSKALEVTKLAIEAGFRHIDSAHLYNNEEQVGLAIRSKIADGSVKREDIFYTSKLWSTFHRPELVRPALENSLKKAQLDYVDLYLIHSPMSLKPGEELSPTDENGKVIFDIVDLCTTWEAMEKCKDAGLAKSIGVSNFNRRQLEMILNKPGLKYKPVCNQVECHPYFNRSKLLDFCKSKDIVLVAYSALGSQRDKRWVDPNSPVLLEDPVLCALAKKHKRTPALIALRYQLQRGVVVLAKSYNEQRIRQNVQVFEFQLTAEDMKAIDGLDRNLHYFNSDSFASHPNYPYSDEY

Broadly, the IC50 is the concentration that gives 50% inhibition. `COc1ccc(-c2oc3cc(OC)c(OC)c(O)c3c(=O)c2OC)cc1O` [CAS, casticin]: the IC50 turned out to be 5.99 µM.
